For orientation: viability means a read-out of living cells in per cent, often relative to untreated cells.

This experiment relates to ARPE-19 cells. The experiment in a line: Cell protection against blue light-induced photooxidation of A2E, extract treated after A2E. It is filed as cell-based. The note with it: Homo sapiens, ARPE-19, 20 min; 30 μM after A2E 20 μM (positive control), blue light 430 nm 6000 lux 20 min; read-out: cell viability compared to the normal group. The method, then: To investigate the photooxidation by blue light induction (post-treatment), ARPE-19 cells were seeded to a 96-well plate at 1×10^4 cell/well and then incubated→(24 hr later) A2E (20 μM) pre-treated once→(after 24 hr) post-treated with a ginseng berry extract (25, 50, 100 μg/ml) once→(after 24 hr) irradiated with blue light (6000 lux, 20 min)→and then, (after 24 hr) the cell viability was measured by using the cell count kit. Since the A2E accumulated in human retinal pigment epithelial cells (ARPE-19 cells) is known to induce cytotoxicity when irradiated with blue light (BL), cell protective capability and cell viability against blue light-induced photooxidation were analyzed. Human retinal pigment epithelial cells (ARPE-19 cells) were aliquoted in a 96-well tissue culture plate at a density of 1×10^4 cells/well and cultured for 24 hours. After treating with A2E at a concentration of 20 μM and culturing for 24 hours, the experimental group was treated with 25, 50, and 100 μg/mL of the ginseng berry extract, a positive control group was treated with 30 μM of lutein instead of the ginseng berry extract, and A2E was accumulated in a negative control group without preliminary drug treatment. After culturing for 24 hours, blue light (BL, 430 nm, 6000 lux) was irradiated for 20 minutes, and after 24 hours, the cell viability was measured by using the cell count kit.

On to `CC1=C[C@H](O)CC(C)(C)[C@H]1/C=C/C(C)=C/C=C/C(C)=C/C=C/C=C(C)/C=C/C=C(C)/C=C/C1=C(C)C[C@@H](O)CC1(C)C` [lutein], for which the viability at 30 µM was found to be 88.2%.

Values taken from patent publication US20240058408A1, “COMPOSITION FOR PREVENTING OR TREATING MACULAR DEGENERATION CONTAINING GINSENG BERRY EXTRACT” (HOLISTIC BIO CO., LTD., priority 2020, published 2024).
